Test results taken from patent publication US20250188079A1, “INHIBITING CYCLIC AMP-RESPONSIVE ELEMENT-BINDING PROTEIN (CREB)” (Forma Therapeutics, Inc., priority 2019, published 2025).

Molecular target: CBP (Homo sapiens (Human), UniProt Q92793)
Test: HTRF biochemical assay for CBP activity (TR-FRET, bromodomain)
Format: binding
Conditions: geometric mean, 10-point 3-fold dilution 33 μM to 1.7 nM, read-out: BROMO IC50 TRF TB CBP (μM gmean)
Procedure, shortened: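 Compounds were tested as 10-point, 3-fold dilutions (33 μM to 1.7 nM final) against CBP protein and peptide ligand in pH 7.5 Hepes buffer with GSH, BGG, BSA and Triton X-100 at room temperature for varying times. The TR-FRET 520/490 ratio gave % inhibition versus no-enzyme and DMSO controls, and IC50 came from 4-parameter logistic fits.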

Sequence of CBP (Q92793 1085-1192): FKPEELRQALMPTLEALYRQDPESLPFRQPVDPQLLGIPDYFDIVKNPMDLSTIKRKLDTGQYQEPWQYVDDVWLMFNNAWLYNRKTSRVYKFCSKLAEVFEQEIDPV

IC50 | SMILES
0.001 to 0.01 µM | COC(=O)N1CCc2ccc3c(nc(C4CCCCC4)n3[C@@H](C)Cc3cccc(C(=O)O)c3)c2C1 [Compound 102]
0.001 to 0.01 µM | COC(=O)N1CCc2c(C(=O)O)cc3c(nc(N4CCCCC4)n3C[C@@H](C)c3ccccc3)c2C1 [Compound 103]
0.001 to 0.01 µM | COC(=O)N1CCc2ccc3c(nc(C4CCCCC4)n3C[C@H](C(=O)O)c3cccc(F)c3F)c2C1 [Compound 104]
0.001 to 0.01 µM | COC(=O)N1CCc2ccc3c(nc(C4CCCCC4)n3CCc3cccc(C(=O)O)c3)c2C1 [Compound 105]
0.001 to 0.01 µM | COC(=O)N1CCc2ccc3c(nc(C4CCN(C(=O)CO)CC4)n3[C@@H](C)Cc3ccccc3)c2C1 [Compound 106]
0.001 to 0.01 µM | COC(=O)N1CCc2ccc3c(nc(C4CCN(S(N)(=O)=O)CC4)n3[C@@H](C)Cc3ccccc3)c2C1 [Compound 107]
0.001 to 0.01 µM | COC(=O)N1CCc2ccc3c(nc(N4CCCCC4)n3[C@@H](C)Cc3cccc(-c4nnn[nH]4)c3)c2C1 [Compound 108]
0.001 to 0.01 µM | COC(=O)N1CCc2ccc3c(nc(-c4ccncc4)n3[C@@H](C)Cc3ccccc3)c2C1 [Compound 109]
0.001 to 0.01 µM | COC(=O)N1CCc2ccc3c(nc(C4CCN(S(C)(=O)=O)CC4)n3[C@H](C)Cn3cc(Cl)cn3)c2C1 [Compound 110]
0.001 to 0.01 µM | COC(=O)N1CCc2ccc3c(nc([C@H]4CC[C@H](C(=O)O)CC4)n3[C@H](C)Cc3cccnc3)c2C1 [Compound 111]
0.001 to 0.01 µM | COC(=O)N1CCc2ccc3c(nc(C4CCCCC4)n3[C@H](C)C[C@H]3CCCC[C@@H]3C(=O)O)c2C1 [Compound 112]
0.001 to 0.01 µM | COC(=O)N1CCc2ccc3c(nc(-c4cccc(CC(=O)O)c4)n3[C@@H](C)Cn3cc(Cl)cn3)c2C1 [Compound 113]
0.001 to 0.01 µM | COC(=O)N1CCc2ccc3c(nc([C@H]4CC[C@H](C(=O)O)CC4)n3[C@H](C)CC3CCCCC3)c2C1 [Compound 114]
0.001 to 0.01 µM | COC(=O)N1CCc2ccc3c(nc(C4CCCCC4)n3C[C@H](CC(=O)O)c3ccccc3C)c2C1 [Compound 115]
0.001 to 0.01 µM | COC(=O)N1CCc2ccc3c(nc(-c4cccc(CC(=O)O)c4)n3[C@@H](C)Cc3cc(F)cc(F)c3)c2C1 [Compound 116]
0.001 to 0.01 µM | COC(=O)N1CCc2ccc3c(nc([C@H]4CC[C@](C)(C(=O)O)CC4)n3[C@H](CO)Cc3ccccc3)c2C1 [Compound 117]
0.001 to 0.01 µM | COC(=O)N1CCc2cc(CC#N)c3c(nc([C@H]4CC[C@H](C(=O)O)CC4)n3CCc3ccccc3)c2C1 [Compound 118]
0.001 to 0.01 µM | COC(=O)N1CCc2ccc3c(nc(C45CC(C(=O)O)(C4)C5)n3[C@@H](C)Cc3ccccc3)c2C1 [Compound 119]
0.001 to 0.01 µM | COC(=O)N1CCc2ccc3c(nc(C4CCCCC4)n3[C@@H](C)C[C@@H]3CCCC[C@@H]3C(=O)O)c2C1 [Compound 120]
0.001 to 0.01 µM | COC(=O)N1CCc2c(C#N)cc3c(nc([C@H]4CC[C@H](C(=O)O)CC4)n3CCc3ccccc3)c2C1 [Compound 121]
0.001 to 0.01 µM | COC(=O)N1CCc2ccc3c(nc(-c4ccc(CC(=O)O)cc4)n3[C@@H](C)Cn3cc(Cl)cn3)c2C1 [Compound 122]
0.001 to 0.01 µM | COC(=O)N1CCc2ccc3c(nc([C@H]4CC[C@H](OC)CC4)n3C[C@@H](C(=O)O)c3ccccc3)c2C1 [Compound 123]

IC50 | SMILES
0.001 to 0.01 µM | COC[C@@H](Cc1ccccc1)n1c2ccc3c(c2nc1[C@H]1CC[C@H](C(=O)O)CC1)CN(C(=O)OC)CC3 [Compound 124]
0.001 to 0.01 µM | COC(=O)N1CCc2ccc3c(nc([C@H]4CC[C@H](C(=O)O)CC4)n3[C@H](C)C(F)(F)c3ccccc3)c2C1 [Compound 125]
0.001 to 0.01 µM | COC(=O)N1CCc2ccc3c(nc(C4CCCCC4)n3CC(C(=O)O)C3CCCCC3)c2C1 (stereo not drawn) [Compound 126]
0.001 to 0.01 µM | COC(=O)N1CCc2ccc3c(nc(-c4cccnc4)n3[C@@H](C)Cc3ccccc3)c2C1 [Compound 127]
0.001 to 0.01 µM | COC(=O)N1CCc2ccc3c(nc(C45CC(C4)C5)n3C[C@H](C(=O)O)c3ccccc3)c2C1 [Compound 128]
0.001 to 0.01 µM | COC(=O)N1Cc2c(ccc3c2nc([C@H]2CC[C@H](C(=O)O)CC2)n3[C@H](C)Cc2ccc(F)c(F)c2)C[C@@H]1C [Compound 129]
0.001 to 0.01 µM | COC(=O)N1CCc2ccc3c(nc([C@H]4C[C@@H](C(=O)O)C4)n3[C@@H](C)Cc3ccccc3C)c2C1 [Compound 130]
0.001 to 0.01 µM | COC(=O)N1CCc2ccc3c(nc(C4CCCCC4)n3CC[C@@H]3CCC[C@H](C(=O)O)C3)c2C1 [Compound 131]
0.001 to 0.01 µM | COC(=O)N1CCc2ccc3c(nc(-c4ccc(C(=O)O)cc4)n3[C@@H](C)Cn3cc(Cl)cn3)c2C1 [Compound 132]
0.001 to 0.01 µM | COC(=O)N1CCc2ccc3c(nc(-c4ccc(C(=O)O)c(F)c4)n3[C@@H](C)Cc3ccccc3)c2C1 [Compound 133]
0.001 to 0.01 µM | COC(=O)N1CCc2ccc3c(nc(C4CCN(C(=O)O)CC4)n3[C@H](C)Cc3ccccc3)c2C1 [Compound 134]
0.001 to 0.01 µM | COC(=O)N1CCc2ccc3c(nc(C4CCCCC4)n3C[C@](C)(C(=O)O)c3ccccc3)c2C1 [Compound 135]
0.001 to 0.01 µM | COC(=O)N1CCc2c([C@H]3CCOC3)cc3c(nc([C@H]4CC[C@H](C(=O)O)CC4)n3CCc3ccccc3)c2C1 [Compound 136]
0.001 to 0.01 µM | COC(=O)N1CCc2ccc3c(nc(C4CCCCC4)n3CCc3ccccc3C(=O)O)c2C1 [Compound 137]
0.001 to 0.01 µM | COC(=O)N1CCc2ccc3c(nc(C4CCN(S(C)(=O)=O)CC4)n3[C@@H](C)Cc3ccccc3)c2C1 [Compound 139]
0.001 to 0.01 µM | COC(=O)N1CCc2ccc3c(nc(-c4cccc([C@](C)(O)C(=O)O)c4)n3[C@H](C)Cc3ccccc3)c2C1 [Compound 140]
0.001 to 0.01 µM | COC(=O)N1CCc2ccc3c(nc([C@H]4CC[C@H](C(=O)O)CC4)n3[C@@H](C)Cc3ccccn3)c2C1 [Compound 141]
0.001 to 0.01 µM | COC(=O)N1CCc2ccc3c(nc(C4CCCCC4)n3[C@H](C)C[C@H]3CC[C@@H](C(=O)O)CC3)c2C1 [Compound 142]
0.001 to 0.01 µM | COC(=O)N1CCc2ccc3c(nc([C@@H]4CCC[C@@H](C(=O)O)C4)n3[C@@H](C)Cc3ccc(F)c(F)c3)c2C1 [Compound 143]
0.001 to 0.01 µM | COC(=O)N1CCc2ccc3c(nc(N4CCC[C@@H](C(=O)O)C4)n3C[C@H](C)c3ccccc3)c2C1 [Compound 144]
0.001 to 0.01 µM | COC(=O)N1CCc2ccc3c(nc([C@H]4CC[C@H](C(=O)O)CC4)n3[C@H](C)[C@@H](O)c3ccccc3)c2C1 [Compound 146]
0.001 to 0.01 µM | COC(=O)N1CCc2ccc3c(nc([C@H]4CC[C@H](C(=O)O)CC4)n3[C@@H](C)C[C@H]3CCCCO3)c2C1 [Compound 147]

IC50 | SMILES
0.001 to 0.01 µM | COC(=O)N1CCc2c(C(=O)O)cc3c(nc(C4CCCCC4)n3CCc3ccccc3)c2C1 [Compound 149]
0.001 to 0.01 µM | COC(=O)N1CCc2ccc3c(nc(C4CCCCC4)n3C[C@@](C)(C(=O)O)c3ccccc3)c2C1 [Compound 150]
0.001 to 0.01 µM | COC(=O)N1CCc2ccc3c(nc([C@H]4CC[C@H](C(=O)O)CC4)n3[C@@H](CO)Cc3ccccc3)c2C1 [Compound 151]
0.001 to 0.01 µM | COC(=O)N1CCc2ccc3c(nc(C4CCCCC4)n3[C@@H](CO)Cc3cccc(C(=O)O)c3)c2C1 [Compound 152]
0.001 to 0.01 µM | COC(=O)N1CCc2cc(C#N)c3c(nc([C@H]4CC[C@H](C(=O)O)CC4)n3CCc3ccccc3)c2C1 [Compound 153]
0.001 to 0.01 µM | COC(=O)N1CCc2c(Cl)cc3c(nc([C@H]4CC[C@H](C(=O)O)CC4)n3CCc3ccccc3)c2C1 [Compound 154]
0.001 to 0.01 µM | COC(=O)N1CCc2ccc3c(nc([C@H]4CC[C@H](C(=O)O)CC4)n3CCc3ccc(OC(F)F)cc3)c2C1 [Compound 155]
0.001 to 0.01 µM | COC(=O)N1CCc2ccc3c(nc([C@@H]4CCC[C@@H](C(=O)O)C4)n3CC[C@H]3CC[C@H](OC)CC3)c2C1 [Compound 156]
0.001 to 0.01 µM | COC(=O)N1CCc2ccc3c(nc(C4CCC4)n3C[C@@H](C(=O)O)c3ccccc3)c2C1 [Compound 157]
0.001 to 0.01 µM | COC(=O)N1CCc2cc(CC(=O)O)c3c(nc(C4CCCCC4)n3CCc3ccccc3)c2C1 [Compound 158]
0.001 to 0.01 µM | COC(=O)N1CCc2ccc3c(nc(-c4ccccn4)n3[C@@H](C)Cc3ccccc3)c2C1 [Compound 159]
0.001 to 0.01 µM | COC(=O)N1CCc2ccc3c(nc(C4CCCCC4)n3CCc3ccc(F)c(C(=O)O)c3)c2C1 [Compound 160]
0.001 to 0.01 µM | COC(=O)N1CCc2ccc3c(nc(N4CCC[C@H](C(=O)O)C4)n3[C@@H](C)Cc3ccccc3)c2C1 [Compound 161]
0.001 to 0.01 µM | COC(=O)N1CCc2ccc3c(nc([C@H]4CC[C@@H](S(=O)(=O)NC(C)=O)CC4)n3[C@H](C)Cc3ccccc3)c2C1 [Compound 162]
0.001 to 0.01 µM | COC(=O)N1CCc2ccc3c(nc(N4CCN(C(=O)CO)CC4)n3[C@@H](C)Cc3ccccc3)c2C1 [Compound 164]
0.001 to 0.01 µM | COC(=O)N1CCc2ccc3c(nc(N4CCC[C@@H](C(=O)O)C4)n3C[C@@H](C)c3ccccc3)c2C1 [Compound 165]
0.001 to 0.01 µM | COC(=O)N1CCc2ccc3c(nc([C@H]4CC[C@@H](S(N)(=O)=O)CC4)n3[C@@H](C)Cc3ccccc3)c2C1 [Compound 166]
0.001 to 0.01 µM | COC(=O)N1CCc2ccc3c(nc(C4CCCCC4)n3C[C@H](CC(=O)O)c3ccccc3)c2C1 [Compound 167]
0.001 to 0.01 µM | COC(=O)N1CCc2ccc3c(nc(C4CCCCC4)n3CC[C@@H]3CCC[C@@H](C(=O)O)C3)c2C1 [Compound 168]
0.001 to 0.01 µM | COC(=O)N1CCc2ccc3c(nc([C@H]4CC[C@H](C(=O)O)CC4)n3C[C@H]3CCc4ccccc4C3)c2C1 [Compound 169]
0.001 to 0.01 µM | COC(=O)N1CCc2ccc3c(nc(C4CCCCC4)n3CCc3ccccc3)c2C1 [Compound 170]
0.001 to 0.01 µM | COC(=O)N1CCc2ccc3c(nc([C@H]4CC[C@H](C(=O)O)CC4)n3Cc3ccc(OC(F)F)cc3)c2C1 [Compound 171]
